Test results taken from patent US20260297095A1, “NOVEL PYRROLOTRIAZINE DERIVATIVE AND USE THEREOF” (Pelemed Co., Ltd., priority 2024, published 2026).
Like-named read-outs stand apart in the source and are kept apart here.

How the values were obtained:
YES1 kinase = YES1 kinase (Homo sapiens, UniProt P07947); assay: YES1 kinase inhibition, ADP Glo assay (Promega); format: biochemical; conditions: for YES1 enzyme, % inhibition, 10 nM / inhibition at 0.01 µM: compound 10 nM; for YES1 enzyme, % inhibition, 100 nM / inhibition at 0.1 µM: compound 100 nM; for inhibition at 0.01 µM: read-out: YES1 enzyme, % inhibition, 10 nM; for inhibition at 0.1 µM: read-out: YES1 enzyme, % inhibition, 100 nM
Sequence of YES1 kinase (P07947 whole entry): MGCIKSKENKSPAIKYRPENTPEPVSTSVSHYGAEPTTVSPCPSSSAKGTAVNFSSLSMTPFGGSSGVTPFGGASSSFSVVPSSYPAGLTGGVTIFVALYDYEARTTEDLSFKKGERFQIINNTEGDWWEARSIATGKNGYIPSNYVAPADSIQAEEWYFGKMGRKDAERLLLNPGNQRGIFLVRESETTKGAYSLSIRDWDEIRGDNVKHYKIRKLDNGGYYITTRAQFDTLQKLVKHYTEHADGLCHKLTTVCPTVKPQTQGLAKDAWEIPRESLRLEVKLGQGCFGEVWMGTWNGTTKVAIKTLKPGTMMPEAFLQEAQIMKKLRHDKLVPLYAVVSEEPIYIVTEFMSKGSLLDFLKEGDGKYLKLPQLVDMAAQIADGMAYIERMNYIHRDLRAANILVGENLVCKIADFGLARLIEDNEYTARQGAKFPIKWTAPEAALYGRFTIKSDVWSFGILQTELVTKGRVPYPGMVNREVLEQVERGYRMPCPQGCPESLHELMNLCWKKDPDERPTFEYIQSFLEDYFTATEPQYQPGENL
In short: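 ADP-Glo luminescence after a 40 min room-temperature reaction of YES1 with ATP and substrate (buffer with MnCl2 and DTT; 10 min compound preincubation) was used as readout. Percent inhibition at 1, 10 and 100 nM compound was calculated relative to negative control after background subtraction, and IC50 values derived.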

[1] = tested on: KYSE-70 esophageal cancer cell line; assay: Cell growth inhibition of KYSE-70 (Sulforhodamine B); format: cell-based; conditions: KYSE-70, 72 hours, read-out: KYSE70 GI50
In short: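 KYSE-70 cells (YES1-amplified) in RPMI-1640 with 10% FBS were seeded 24 h before treatment with compound at 0.0046–10 µM final. After 72 h, cells were TCA-fixed and stained with sulforhodamine B, with absorbance read at 510 nm. GI50 was derived with a time-zero plate set to 0% and the vehicle control to 100%, in duplicate tests.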

TEAD (Homo sapiens) = biological target: T1, TEAD (Homo sapiens); assay: TEAD inhibition, KYSE-70 TEAD luciferase reporter cell line; format: cell-based; conditions: KYSE-70 TEAD luciferase reporter cells, 24 hours, normalized by cell viability; read-out: KYSE70 TEAD IC50
T1 construct: lentiviral TEAD luciferase reporter read-out
T1 sequence (P07947 whole entry): as above
Experimental: To evaluate the inhibitory activity on TEAD activity in KYSE-70 cells in which YES1 is overexpressed, the following experiment was performed.
TEAD luciferase reporter lentivirus (BPS Bioscience; TEAD luciferase reporter lentivirus) was co-cultured with KYSE-70 cell line for 48 hours, and then 1 μg/ml puromycin (Invitrogen) was added to the culture to induce cell death only in cells that were not infected with the virus, thereby generating a KYSE-70 cell line into which the TEAD luciferase reporter was introduced. The KYSE-70 TEAD luciferase reporter cell line was cultured in RPMI-1640 (Capricorn) supplemented with 10% FBS (Cellgro). The cells were seeded 24 hours prior to compound treatment into two 96-well F-bottom clear plates (Greiner) and two white clear bottom 96-well plates (Greiner), at 20,000 cells in 180 μL medium per well.
The 10 mM compound was diluted 100-fold in medium to prepare a 100 μM compound, then placed in a 96-well plate and further 3-fold diluted in medium to prepare a compound plate with concentrations ranging from 0.046 μM to 100 μM. 20 μL of each compound from the drug plate was injected into the cell-seeded plates to prepare the final concentrations 0.0046 μM to 10 μM. For TEAD activity measurement, 24 hours after compound treatment on the white clear bottom 96-well plate, 100 μL of medium was removed from each well, and 100 μL of One-Step™ Luciferase Assay System solution was added. After reacting at room temperature for 15 minutes, luminescence intensity was measured using a microplate reader (VICTOR X3, PerkinElmer). Since TEAD activity values needed to be normalized by cell viability, a cell viability assay was also performed. For measuring cell viability, 24 hours after compound treatment on the 96-well F-bottom clear plate, 50 μL of 33% trichloroacetic acid was added to each well and was fixed by incubating at 4° C. for 1 hour. After that, the plate was washed 5 times with sterile water, and 100 μL of 0.04% Sulforhodamine B solution in 1% acetic acid was added to react for 1 hour to stain the cells. After staining, the plates were washed 4 times with 1% acetic acid solution and completely dried. Then the Sulforhodamine B bound to cellular proteins was completely dissolved with 10 mM Tris base solution (pH 10.5). The absorbance was measured at a wavelength of 510 nm using a microplate reader (TECAN, sunrise microplate reader). The TEAD activity value and cell viability value were normalized, and a graph was drawn using the GraphPad Prism version 5.0 program, and the IC50 value was calculated.

Row | YES1 enzyme, % inhibition, 10 nM (YES1 kinase) [%] | YES1 enzyme, % inhibition, 100 nM (YES1 kinase) [%] | GI50 [1] [nM] | inhibition at 0.01 µM (YES1 kinase) [%] | inhibition at 0.1 µM (YES1 kinase) [%] | GI50 ([1]; Homo sapiens) [nM] | Molecule | IC50 (TEAD (Homo sapiens)) [nM] | further results
1 | 41 | 46 | 1000 to 10000 | – | – | – | tert-butyl (4-(4-amino-7-(6-(dimethylamino)pyridin-3-yl)pyrrolo[2,1-f][1,2,4]triazin-5-yl)-2-methoxyphenyl)carbamate [Example 6] | ≤ 100 | –
2 | 77 | 93 | ≤ 100 | – | – | – | tert-butyl (4-(4-amino-7-(4-(dimethylamino)-4-methylpiperidin-1-yl)pyrrolo[2,1-f][1,2,4]triazin-5-yl)-2-methoxyphenyl)carbamate [Example 13] | ≤ 100 | –
3 | 30 | 36 | 1000 to 10000 | – | – | – | tert-butyl (4-(4-amino-7-(4-(tert-butyl)piperazin-1-yl)pyrrolo[2,1-f][1,2,4]triazin-5-yl)-2-methoxyphenyl)carbamate [Example 16] | 1000 to 10000 | –
4 | – | – | ≤ 100 | – | – | – | tert-butyl (4-(4-amino-7-(4-aminopiperidin-1-yl)-6-methylpyrrolo[2,1-f][1,2,4]triazin-5-yl)-2-methoxyphenyl)carbamate [Example 78] | ≤ 100 | –
5 | 38 | 68 | 100 to 1000 | – | – | – | tert-butyl (4-(4-amino-7-(4-(dimethylamino)-3-methoxyphenyl)pyrrolo[2,1-f][1,2,4]triazin-5-yl)-2-methoxyphenyl)carbamate [Example 5] | 100 to 1000 | –
6 | – | – | 100 to 1000 | – | – | – | tert-butyl (4-(4-amino-7-(4-(methylamino)piperidin-1-yl)pyrrolo[2,1-f][1,2,4]triazin-5-yl)-2-methoxyphenyl)carbamate [Example 58] | ≤ 100 | IC50 (YES1 kinase; class symbols, read-out: YES1 enzyme, IC50): ≤ 100 nM
7 | – | – | – | 67 | 92 | 100 to 1000 | COc1cc(-c2cc(N3CCC4(CC3)CN(C)C4)n3ncnc(N)c23)ccc1NC(=O)OC(C)(C)C [Example 21, tert-butyl (4-(4-amino-7-(2-methyl-2,7-diazaspiro[3.5]nonan-7-yl)pyrrolo[2,1-f][1,2,4]triazin-5-yl)-2-methoxyphenyl)carbamate] | – | –
8 | – | – | – | 47 | – | 100 to 1000 | COc1cc(-c2cc(N3CCC(O)CC3)n3ncnc(N)c23)ccc1NC(=O)OC(C)(C)C [Example 90, tert-butyl (4-(4-amino-7-(4-hydroxypiperidin-1-yl)pyrrolo[2,1-f][1,2,4]triazin-5-yl)-2-methoxyphenyl)carbamate] | – | YES1 kinase inhibition at 1 nM (in words) (YES1 kinase; compound 1 nM): could be inhibited even at a low concentration of 1 nM; inhibition at 0.001 µM (YES1 kinase; compound 1 nM, read-out: YES1 enzyme, % inhibition, 1 nM): 12%
9 | – | – | – | 67 | 88 | ≤ 100 | COc1cc(-c2cc(N3CCC(N(C)C)CC3)n3ncnc(N)c23)ccc1NC(=O)OC(C)(C)C [Example 15, tert-butyl (4-(4-amino-7-(4-(dimethylamino)piperidin-1-yl)pyrrolo[2,1-f][1,2,4]triazin-5-yl)-2-methoxyphenyl)carbamate] | – | –
10 | – | – | – | 65 | 90 | ≤ 100 | COc1cc(-c2cc(CCN3CCC(N(C)C)CC3)n3ncnc(N)c23)ccc1NC(=O)OC(C)(C)C [Example 98, tert-butyl (4-(4-amino-7-(2-(4-(dimethylamino)piperidin-1-yl)ethyl)pyrrolo[2,1-f][1,2,4]triazin-5-yl)-2-methoxyphenyl)carbamate] | – | –
